Data set [1] deals with M.tb strain H37Rv. In words: MIC against M.tb H37Rv under aerobic (replicating; MABA) conditions. The data set is classed as cell-based, Mycobacterium tuberculosis. The following applies: Mycobacterium tuberculosis, MIC90, Table 1, read-out: MIC MABA.
The subject of data set [2] is Vero green monkey-derived epithelial kidney cells. In words: Mammalian cytotoxicity in Vero cells. The data set is classed as cell-based. Conditions: Chlorocebus sabaeus, Table 1.
Data set [3] deals with M.tb strain H37Rv. As to the kind of experiment: MIC against M.tb H37Rv under non-replicating (LORA) conditions. Conditions: MIC90, Table 1.

In brackets after ≈: the same amount, converted by molar mass.

As a reminder, the MIC is the smallest concentration in the dilution series that meets the test's criterion for growth inhibition. A word on the IC50: it is the concentration that gives 50% inhibition. As usually defined, the melting point is the temperature of the solid-liquid transition. The molecule `Cc1cc(Cl)ccc1-c1ccc(C(=O)N2CCc3cccc(N4CCN(C)CC4)c3C2)nc1` [Compound 18, (5-(4-Chloro-2-methylphenyl)pyridin-2-yl)(8-(4-methylpiperazin-1-yl)-3,4-dihydroisoquinolin-2(1H)-yl)methanone] registered a melting point of 132 to 135 °C. Further, the MIC in the data set on M.tb strain H37Rv [1] stood at 11 µg/mL (≈ 23.9 µM). Further, half-maximal inhibition in data set [2] (IC50) required 20 µg/mL (≈ 43.4 µM). The “MIC LORA” value against M.tb strain H37Rv [3] was found to be 13 µg/mL (≈ 28.2 µM).
In the case of `CN1CCN(c2cccc3c2CN(C(=O)c2ccc(-c4ccc(Cl)cc4)cn2)CC3)CC1` [Compound 19, (5-(4-Chlorophenyl)pyridin-2-yl)(8-(4-methylpiperazin-1-yl)-3,4-dihydroisoquinolin-2(1H)-yl)methanone], the melting point lay within 144 to 147 °C. Also, the MIC with M.tb strain H37Rv [1] stood at 16 µg/mL (≈ 35.8 µM). In data set [2], the IC50 was 27 µg/mL (≈ 60.4 µM). The “MIC LORA” value against M.tb strain H37Rv [3] was 20 µg/mL (≈ 44.7 µM).
The matching figures for `CN1CCN(c2cccc3c2CN(C(=O)c2ccc(-c4cccc(Cl)c4)cn2)CC3)CC1` [Compound 20, (5-(3-Chlorophenyl)pyridin-2-yl)(8-(4-methylpiperazin-1-yl)-3,4-dihydroisoquinolin-2(1H)-yl)methanone]: 105 to 108 °C, 15 µg/mL (≈ 33.6 µM), 24 µg/mL (≈ 53.7 µM) and 11.3 µg/mL (≈ 25.3 µM).
For the molecule `COc1ccc(N2CCN(C)CC2)c2c1CCN(C(=O)c1ccc(-c3ccc(Cl)cc3)cn1)C2` [Compound 21, (5-(4-Chlorophenyl)pyridin-2-yl)(5-methoxy-8-(4-methylpiperazin-1-yl)-3,4-dihydroisoquinolin-2(1H)-yl)methanone], the melting point is 124 to 127 °C. Also, the MIC with M.tb strain H37Rv [1] came out at 13 µg/mL (≈ 27.3 µM). In addition, in data set [2], 11 µg/mL (≈ 23.1 µM) corresponded to half-maximal inhibition (IC50). The “MIC LORA” value against M.tb strain H37Rv [3] was found to be 12 µg/mL (≈ 25.2 µM).
As to `COc1ccc(N2CCN(C)CC2)c2c1CCN(C(=O)c1ccc(-c3ccc(Cl)cc3C)cn1)C2` [Compound 22, (5-(4-Chloro-2-methylphenyl)pyridin-2-yl)(5-methoxy-8-(4-methylpiperazin-1-yl)-3,4-dihydroisoquinolin-2(1H)-yl)methanone], the melting point is 125 to 128 °C. Also, the minimum inhibitory concentration (MIC) in the data set with M.tb strain H37Rv [1] came to 8.9 µg/mL (≈ 18.1 µM). Moreover, half-maximal inhibition in data set [2] (IC50) required 22 µg/mL (≈ 44.8 µM). Moreover, the “MIC LORA” value in the data set on M.tb strain H37Rv [3] stood at 8.0 µg/mL (≈ 16.3 µM).
Take `CCc1ccc(N2CCN(C)CC2)c2c1CCN(C(=O)Nc1ccc(-c3ccc(Cl)cc3C)cn1)C2` [Compound 28, N-(5-(4-Chloro-2-methylphenyl)pyridin-2-yl)-5-ethyl-8-(4-methylpiperazin-1-yl)-3,4-dihydroisoquinoline-2(1H)-carboxamide]: the melting point was 180 to 182 °C. The minimal inhibitory concentration (MIC) in the data set with M.tb strain H37Rv [1] amounted to 2.9 µg/mL (≈ 5.75 µM). Moreover, the IC50 in data set [2] amounted to 12 µg/mL (≈ 23.8 µM). Also, in the data set on M.tb strain H37Rv [3], the “MIC LORA” value is listed as 1.8 µg/mL (≈ 3.57 µM).
The molecule `Cc1ccc(-c2ccc(NC(=O)N3CCc4c(Cc5ccccc5)ccc(N5CCN(C)CC5)c4C3)nc2)c(C)c1` [Compound 30, 5-Benzyl-N-(5-(2,4-dimethylphenyl)pyridin-2-yl)-8-(4-methylpiperazin-1-yl)-3,4-dihydroisoquinoline-2(1H)-carboxamide] yielded a melting point of 94 to 97 °C. In addition, the MIC in the data set on M.tb strain H37Rv [1] is 2 µg/mL (≈ 3.66 µM). In data set [2], this molecule had an IC50 of 11 µg/mL (≈ 20.2 µM). Also, in the data set with M.tb strain H37Rv [3], the “MIC LORA” value is 1.9 µg/mL (≈ 3.48 µM).
Regarding `COc1ccc(N2CCN(C)CC2)c2c1CCN(C(=O)Nc1ccc(-c3cncnc3)cn1)C2` [Compound 31, 5-Methoxy-8-(4-methylpiperazin-1-yl)-N-(5-(pyrimidin-5-yl)pyridin-2-yl)-3,4-dihydroisoquinoline-2(1H)-carboxamide], the melting point is 236 to 239 °C. Besides, in the data set with M.tb strain H37Rv [1], the MIC was more than 32 µg/mL. Further, the IC50 in data set [2] was more than 32 µg/mL. Also, in the data set with M.tb strain H37Rv [3], the “MIC LORA” value was more than 32 µg/mL.
Regarding `COc1ccc(-c2ccc(NC(=O)N3CCc4c(OC)ccc(N5CCN(C)CC5)c4C3)nc2)cn1` [Compound 32, 5-Methoxy-N-(6′-methoxy-[3,3′-bipyridin]-6-yl)-8-(4-methylpiperazin-1-yl)-3,4-dihydroisoquinoline-2(1H)-carboxamide], the melting point is 93 to 96 °C. Further, the MIC in the data set on M.tb strain H37Rv [1] turned out to be 15.5 µg/mL (≈ 31.7 µM). Also, the IC50 in data set [2] is 14 µg/mL (≈ 28.7 µM). Further, the “MIC LORA” value against M.tb strain H37Rv [3] was 20 µg/mL (≈ 40.9 µM).

The record behind these values is paper PMC7721589, “Synthesis and structure-activity relationships for tetrahydroisoquinoline-based inhibitors of Mycobacterium tuberculosis” (Bioorganic & Medicinal Chemistry, 2020).
